Assay type in all cases: in vivo, humans
Data set [1] in a line: Urinary elimination/recovery after 500 mg oral bolus of 13C5-C3G. The settings on record: urine, single 500 mg oral 13C5-C3G; for Tmax: male, human, po, 500 mg, urine collection interval, read-out: Time at maximum concentration; for Total recovery: 0-48 h; for Total recovery / Maximum concentration: mean ± SEM. The protocol: (§1) A detailed description of the clinical design was previously published ([Czank et al., 2013]). Briefly, a single 500 mg oral bolus dose of isotopically labelled C3G (^13C5-C3G) was fed to eight healthy male participants (body mass index, 18.5–30.5 kg·m^–2; aged 18–45 years) after an overnight fast (>8 h). Participants provided blood (baseline, 0.5, 1, 2, 4, 6, 24, 48 h), urine (individual voids between 0 and 6 h, total voids between 6–24 and 24–48 h), breath (baseline, 0.5, 1, 2, 4, 6, 24, 48 h) and faecal samples (all voids between 0–6, 6–24 and 24–48 h). The study was conducted at the Clinical Research and Trials Unit at the University of East Anglia according to the principles expressed in the Declaration of Helsinki and was approved by the Cambridgeshire 3 Research Ethics Committee (REC ref: 10/H0306/42) and registered at clinicaltrials.gov as NCT01106729.
(§2) Serum, urine and faecal samples were extracted by SPE and analysed by HPLC-ESI-MS/MS as recently described ([Czank et al., 2013]). The extraction efficiency was established as 87 ± 11% (coefficient of variation, CV; 6.8 ± 0.7%) for serum, 88 ± 18% (CV, 7.9 ± 0.8%) for urine and 81 ± 21% (CV, 14.1 ± 1.2%) for faeces (n = 3 replicates for each analyte). Sample extracts (5 μL) were injected onto a Kinetex PFP column (Phenomonex) and separated using an Agilent 1200 series HPLC with a QTrap 4000 linear ion trap mass spectrometer (ABSciex, Warrington, UK). […] Metabolite identification was performed by multiple reaction monitoring (MRM) optimized for the detection of pure standards with m/z of the parent and daughter fragments adjusted to +2,+3,+5 amu to allow identification of the ^13C-labelled metabolites derived from the B-ring, A-ring or the parent structure respectively. Metabolites were confirmed on the basis of retention time (using authentic and synthesized standards where possible) and three or more ion transitions. The HPLC-ESI-MS/MS method was validated for linearity and precision across all metabolites. Six point standard curves ranging from 1.25 to 20 μM were constructed from analytical standards and injected six times. The precision was established as 1.4–11.0% and linearity of the standard curves was established as r^2 = 0.991–1.000 (CV, 0.2%) across the identified metabolites.
(§3) Pharmacokinetic modelling of metabolites in the serum was performed with the PKSolver ‘add-on’ for Excel 2010 (Microsoft, […], USA) ([Zhang et al., 2010]) using non-compartmental analysis with the AUC calculated using the trapezoidal rule. Pharmacokinetic parameters were established for each individual analyte and presented as mean ± SEM. Urine samples collected during the first 6 h post-bolus were grouped together to the nearest hour time point (i.e. samples were not pooled but individual concentrations were averaged post-quantification) for graphical representation and to calculate total cumulative recovery. The concentration of metabolites was converted to amount recovered from urine by accounting for the molecular weight of the individual ^13C-labelled metabolites and the volume of the individual participants void and averaged across participants. Recovery of metabolites in the faeces was established from the molecular weight of the ^13C-labelled metabolite and the weight of the individual participants void adjusting for faecal water content as previously described ([Czank et al., 2013]). Urine and faecal recovery amounts are presented as mean ± SEM (n = 8), unless otherwise stated.

A short description of data set [2]: Faecal recovery after 500 mg oral bolus of 13C5-C3G. The settings on record: faeces, 500 mg oral 13C5-C3G; for Recovery 24–48 h / Recovery 6–24 h: mean ± SEM; for Recovery 0–6 h: 0–6 h (only 2 participants provided voids). The protocol: The study was conducted at the Clinical Research and Trials Unit at the University of East Anglia according to the principles expressed in the Declaration of Helsinki and was approved by the Cambridgeshire 3 Research Ethics Committee (REC ref: 10/H0306/42) and registered at clinicaltrials.gov as NCT01106729.
Sample extracts (5 μL) were injected onto a Kinetex PFP column (Phenomonex) and separated using an Agilent 1200 series HPLC with a QTrap 4000 linear ion trap mass spectrometer (ABSciex, Warrington, UK). […] Metabolite identification was performed by multiple reaction monitoring (MRM) optimized for the detection of pure standards with m/z of the parent and daughter fragments adjusted to +2,+3,+5 amu to allow identification of the ^13C-labelled metabolites derived from the B-ring, A-ring or the parent structure respectively. […] The HPLC-ESI-MS/MS method was validated for linearity and precision across all metabolites.
Pharmacokinetic parameters were established for each individual analyte and presented as mean ± SEM. Urine samples collected during the first 6 h post-bolus were grouped together to the nearest hour time point (i.e. samples were not pooled but individual concentrations were averaged post-quantification) for graphical representation and to calculate total cumulative recovery. The concentration of metabolites was converted to amount recovered from urine by accounting for the molecular weight of the individual ^13C-labelled metabolites and the volume of the individual participants void and averaged across participants. […] Urine and faecal recovery amounts are presented as mean ± SEM (n = 8), unless otherwise stated.

A short description of data set [3]: Serum pharmacokinetics after 500 mg oral bolus of 13C5-C3G (HPLC-ESI-MS/MS, non-compartmental analysis). The settings on record: for half-life / t1/2: serum elimination half-life; for Cmax: healthy men, mean ± SEM of participants in whom detected; for AUC(0-t): read-out: AUC0-48. The protocol:
as §1, §2, §3

The mark [4] stands for this setting: male, human, serum, po, 500 mg, single 500 mg oral 13C5-C3G, mean ± SEM.
The mark [5] stands for this setting: male, human, serum, po, 500 mg, serum, single 500 mg oral 13C5-C3G, mean ± SEM, read-out: tmax.
[6] abbreviates: male, human, serum, po, 500 mg, single 500 mg oral 13C5-C3G.
The mark [7] stands for this setting: male, human, serum, trapezoidal rule, single 500 mg oral 13C5-C3G, mean ± SEM.
[8] abbreviates: single 500 mg oral 13C5-C3G, mean ± SEM.
Setting [9] is: serum, single 500 mg oral 13C5-C3G, mean ± SEM.

The structures appear in SMILES notation. Marks after values point to notes of the source that are not given here.

From publication PMC4080980, “The pharmacokinetics of anthocyanins and their metabolites in humans” (British Journal of Pharmacology, 2014) come the findings set out here.

Turning to `O=C(O)c1ccc(O)cc1`, in data set [1], the Tmax fell in the range of 1 to 2 h, the Total recovery came to 13.2 ± 3.7 µg and the Maximum concentration amounted to 49 ± 11 nM. The “Recovery 24–48 h” value in data set [2] was 22.0 ± 11.6 ^g μg.

With `O=C(O)c1cccc(O)c1O` [2,3-Dihydroxybenzoic acid], the “Recovery 24–48 h” value in data set [2] is 440.4 ± 381.8 ^h μg.

Regarding `COc1ccc(C(=O)O)c(O)c1` [2-Hydroxy-4-methoxybenzoic acid], in data set [1], the Tmax lay in the range of 3 to 4 h, the Total recovery stood at 64.6 µg and the Maximum concentration was 172 nM. Moreover, in data set [2], the “Recovery 6–24 h” value was 1.4 ^b μg and the “Recovery 24–48 h” value was 273.3 ± 272.7 ^h μg.

With `O=Cc1ccc(O)c(O)c1` [3,4-Dihydroxybenzaldehyde], in data set [1], the Tmax was in the range of 0 to 1 h, the Total recovery was 6.3 ± 2.6 µg and the Maximum concentration worked out at 24 ± 7 nM. Moreover, the Maximum concentration in data set [1] (listed as 3,4-dihydroxybenzaldehyde) amounted to 24 nM. Besides, in data set [2], the “Recovery 6–24 h” value was 3.4 ± 3.8 ^h μg and the “Recovery 24–48 h” value is listed as 5.1 ± 1.8 ^i μg.

With `O=C(O)Cc1ccc(O)c(O)c1` [3,4-Dihydroxyphenylacetic acid], in data set [1], the Tmax lay in the range of 24 to 48 h, the Total recovery was 28.0 µg and the Maximum concentration turned out to be 82 nM. In data set [2], the “Recovery 0–6 h” value was 2.0 ^b μg, the “Recovery 6–24 h” value is reported as 10.1 ± 4.0 ^e μg and the “Recovery 24–48 h” value is reported as 12.8 ± 7.5 ^c μg.

Take `O=Cc1ccc(O)cc1` [4-Hydroxybenzaldehyde]: in data set [1], the Tmax lay within 5 to 6 h, the Total recovery amounted to 10.0 ± 9.0 µg and the Maximum concentration was 97 ± 94 nM. In data set [2], the “Recovery 6–24 h” value is on record as 0.8 ± 0.8 ^h μg and the “Recovery 24–48 h” value is listed as 0.1 ^b μg. The same molecule gave a half-life in data set [3] (setting [4]) of 17.9 ± 8.8 h. In data set [3] (setting [5]), the Tmax is 5.6 ± 3.1 h. In data set [3] (setting [6]), this molecule had a Cmax of 667 ± 653 nM. Moreover, the AUC(0-t) in data set [3] (setting [7]) stood at 0.663 ± 0.505 µM·h.

`O=C(O)Cc1ccc(O)cc1` [4-Hydroxyphenylacetic acid]: in data set [1], the Tmax was 4 to 5 h, the Total recovery was 50.0 ± 2.0 µg and the Maximum concentration was found to be 391 ± 113 nM. For the same molecule, in data set [2], the “Recovery 6–24 h” value is on record as 7.3 ^b μg and the “Recovery 24–48 h” value is 55.4 ^b μg.

Take `COc1ccc(C=O)cc1` [4-Methoxybenzaldehyde]: in data set [2], the “Recovery 6–24 h” value is reported as 20.7 ^b μg.

In the case of `COc1cc(/C=C/C(=O)O)ccc1O` [A-ring-derived ferulic acid], the “Recovery 6–24 h” value in data set [2] was 469.7 µg. For the same molecule, the t1/2 in data set [3] (setting [8]) is 96.5 ± 73.4 h.

Consider `O=C(O)c1ccc(OC2OC(C(=O)O)C(O)C(O)C2O)cc1` (stereo not shown) [Benzoic acid-4-glucuronide], for which, in data set [1], the Tmax lay within 4 to 5 h, the Total recovery turned out to be 53.1 ± 18.1 µg and the Maximum concentration turned out to be 129 ± 47 nM. In addition, in data set [2], the “Recovery 0–6 h” value is listed as 1.5 ^b μg, the “Recovery 6–24 h” value was 6.8 ± 3.0 ^c μg and the “Recovery 24–48 h” value was 14.8 ± 8.0 ^i μg. Also, in data set [3] (setting [4]), the half-life was 17.1 ± 3 h. For the same molecule, the Tmax in data set [3] (setting [5]) came to 10.9 ± 3.4 h. The molecule also yielded a Cmax in data set [3] (setting [6]) of 74 ± 20 nM. The AUC(0-t) in data set [3] (setting [7]) came out at 1.47 ± 0.489 µM·h.

Consider `O=C(O)/C=C/c1ccc(O)c(O)c1` [Caffeic acid], for which, in data set [2], the “Recovery 6–24 h” value is reported as 25.2 ^b μg and the “Recovery 24–48 h” value was 354.6 ± 125.0 ^h μg.

As to `COc1cc(/C=C/C(=O)O)ccc1O` [Ferulic acid], in data set [2] (listed as B-ring-derived ferulic acid), the “Recovery 6–24 h” value is 2373.1 µg. The Tmax in data set [3] (setting [5]) is roughly 8 h; in data set [3] (setting [9]), 8.2 ± 4.1 h. The AUC(0-t) in data set [3] (setting [7]) is 1.82 ± 1.05 µM·h. Further, the “time of detection after consumption” value in data set [3] (serum and urine samples) was no more than 4 h.

With `O=C(O)CNC(=O)c1ccccc1` [Hippuric acid], the Tmax in data set [1] was 6 to 24 h; in data set [3] (setting [5]), roughly 16 h; in data set [3] (setting [9]), 15.7 ± 4.1 h. In data set [1], this molecule registered a Total recovery of 2415.6 ± 2223.0 µg. The Maximum concentration in data set [1] is given as 5417 ± 4906 nM; in data set [1] (listed as hippuric acid) it was 5417 nM. In addition, in data set [2], the “Recovery 6–24 h” value is 12.0 ± 11.4 ^g μg. Moreover, the “Recovery 24–48 h” value in data set [2] is reported as 27.5 ± 27.4 ^h μg. The half-life in data set [3] (setting [4]) is 95.6 ± 77.8 h. This molecule returned a Cmax in data set [3] (setting [6]) of 1960 ± 1390 nM.

For `COc1ccc(C(=O)O)cc1OC1OC(C(=O)O)C(O)C(O)C1O` (stereo not shown) [IsoVA-3-glucuronide], in data set [1], the Total recovery stood at 526.8 ± 92.2 µg and the Maximum concentration amounted to 699 ± 90 nM. Besides, in data set [2], the “Recovery 0–6 h” value was 1.8 ^b μg, the “Recovery 6–24 h” value is 1.3 ^b μg and the “Recovery 24–48 h” value was 12.7 ± 10.9 ^h μg. Further, the t1/2 in data set [3] (setting [8]) is 1.6 ± 0.2 h. The concentration in data set [3] (serum, single 500 mg oral 13C5-C3G) peaked (Cmax) at 35 ± 5 nM. The Tmax in data set [3] (setting [9]) is recorded as 4.3 ± 0.6 h. The molecule further displayed an AUC0-48 in data set [3] (serum, trapezoidal rule, single 500 mg oral 13C5-C3G, mean ± SEM) of 0.103 ± 0.013 µM·h.

In data set [1], `COc1ccc(C(=O)O)cc1OS(=O)(=O)O` [IsoVA-3-sulfate] displayed a Total recovery of 183.2 ± 93.1 µg and a Maximum concentration of 822 ± 557 nM. Moreover, in data set [2], the “Recovery 6–24 h” value is 0.6 ± 0.3 ^h μg and the “Recovery 24–48 h” value is on record as 176.1 ± 174.7 ^h μg.

For `COC(=O)c1ccc(O)c(OC)c1` [Methyl vanillate], in data set [2], the “Recovery 6–24 h” value is given as 35.1 ^b μg.

As to `O=C(O)c1ccc(OS(=O)(=O)O)c(O)c1` [PCA-4-sulfate], in data set [1], the Total recovery was determined as 492.4 ± 193.0 µg and the Maximum concentration is recorded as 1244 ± 333 nM. Also, in data set [2], the “Recovery 6–24 h” value is recorded as 23.0 ± 18.1 ^g μg and the “Recovery 24–48 h” value is 12.0 ± 10.2 ^g μg.

For `COc1cc(-c2[o+]c3cc(O)cc(O)c3cc2OC2OC(CO)C(O)C(O)C2O)ccc1O` (stereo not shown) [Peonidin-3-glucoside], in data set [1], the Tmax was in the range of 1 to 2 h, the Total recovery was determined as 22.9 ± 10.6 µg and the Maximum concentration is given as 76 ± 43 nM.

`COc1cc(C(=O)O)ccc1OS(=O)(=O)O` [VA-4-sulfate]: in data set [1], the Total recovery was 449.1 ± 112.4 µg and the Maximum concentration was determined as 1682 ± 899 nM. In addition, in data set [2], the “Recovery 0–6 h” value is listed as 0.6 ^b μg and the “Recovery 24–48 h” value is recorded as 69.0 ± 39.1 ^g μg.
